Test results from patent US6270957A, “Non-Imuunosuppressive cyclosporins and their use in the prevention and treatment of HIV infection” (Wisconsin Alumni Research Foundation, priority 1999, dated 2001).
Square brackets hold non-standard residues; d marks the D form. Side chains are listed from the residue outwards. Peptide text beside a SMILES is read from it. * marks the point of attachment. X2 = CC(C)CN(C[C@@H](O)[C@H](Cc1ccc(OCC(=O)*)cc1)NC(=O)O[C@H]1CCOC1)S(=O)(=O)c1ccc(N)cc1; X1 = NC(=O)C[C@H](NC(=O)OCc1ccccc1)C(=O)N[C@@H](Cc1ccccc1)[C@@H](O)CN1CCC[C@H]1C(=O)*; X3 = CC(C)(C)c1cc(OCC(=O)*)ccc1Sc1c(O)cc(-c2ccccc2)oc1=O; NMeLeu(3R-OH) = CN[C@H](C(=O)O)[C@H](O)C(C)C; NMeL = CN[C@@H](CC(C)C)C(=O)O; NMeV = CN[C@H](C(=O)O)C(C)C; dNMeS = CN[C@H](CO)C(=O)O; Abu = CC[C@H](N)C(=O)O

What was measured:
[1] = molecular target: T1, HIV protease (Human immunodeficiency virus type 1 group M subtype B, UniProt P04585); experiment: Inhibition of HIV protease; assay type: biochemical; conditions: read-out: Ki against HIV protease
T1 construct: HIV protease is an aspartic protease that cleaves the immature viral protein gag-pol into mature structural proteins and enzymes

[2] = molecular target: cyclophilin (Homo sapiens, UniProt P62937); experiment: Inhibition of cyclophilin; assay type: biochemical; conditions: read-out: Ki against cyclophilin
Chain of cyclophilin (P62937 whole entry): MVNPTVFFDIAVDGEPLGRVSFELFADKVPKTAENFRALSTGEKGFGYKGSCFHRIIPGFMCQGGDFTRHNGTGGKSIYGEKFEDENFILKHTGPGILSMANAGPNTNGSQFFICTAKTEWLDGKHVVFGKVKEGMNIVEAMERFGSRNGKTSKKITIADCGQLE

[3] = test system: HIV-1; conditions: CEM cells, HIV-1, 6 days, XTT; quadruplicate runs
Protocol: The procedure used in the National Cancer Institute's test for agents active against human immunodeficiency virus (HIV) is designed to detect agents acting at any stage of the virus reproductive cycle. The assay basically involves the killing of T4 lymphocytes by HIV. Small amounts of HIV are added to cells, and two cycles of virus reproduction are necessary to obtain the required cell killing. Agents that interact with virions, cells, or virus gene-products to interfere with viral activities will protect cells from cytolysis. The system is automated in several features to accommodate large numbers of candidate agents and is generally designed to detect anti-HIV activity. However, compounds that degenerate or are rapidly metabolized in the culture conditions may not show activity in this screen. All tests are compared with at least one positive (e.g., AZT-treated) control done at the same time under identical conditions.
Candidate agent is dissolved in dimethyl sulfoxide (unless otherwise instructed) then diluted 1:100 in cell culture medium before preparing serial half-log10 dilutions. […]
Individual wells are analyzed spectrophotometrically to quantitate formazan production, and in addition are viewed microscopically for detection of viable cells and confirmation of protective activity. […]

[4] = compared with DMP-323; cited from earlier work
[5] = test system: HIV; conditions: read-out: anti-HIV potency IC90; cited from earlier work

| Structure (SMILES) | Ki [1] | Ki [2] | NCI determination of anti-HIV activity [3] | plasma concentrations [4] | IC90 [5] |
| --- | --- | --- | --- | --- | --- |
| CC[C@@H]1NC(=O)[C@H]([C@H](O)C(C)C)N(C)C(=O)[C@H](C(C)C)N(C)C(=O)[C@H](CC(C)C)N(C)C(=O)[C@H](CC(C)C)N(C)C(=O)[C@@H](C)NC(=O)[C@H](CCCCNC(=O)[C@H](Cc2ccccc2)NC(=O)[C@@H](NC(=O)[C@@H]2CCCN2C[C@H](O)[C@H](Cc2ccccc2)NC(=O)[C@H](CC(N)=O)NC(=O)OCc2ccccc2)[C@@H](C)CC)NC(=O)[C@H](CC(C)C)N(C)C(=O)[C@H](C(C)C)NC(=O)[C@H](CC(C)C)N(C)C(=O)[C@@H](CO)N(C)C1=O [Compound 2.8] (cyclo([Abu][dNMeS][NMeL]V[NMeL]K([Phe-Ile-X1])[dA][NMeL][NMeL][NMeV][NMeLeu(3R-OH)])) | 1 nM | 20 nM | – | – | – |
| CC[C@@H]1NC(=O)[C@H]([C@H](O)C(C)C)N(C)C(=O)[C@H](C(C)C)N(C)C(=O)[C@H](CC(C)C)N(C)C(=O)[C@H](CC(C)C)N(C)C(=O)[C@@H](C)NC(=O)[C@H](CCCCNC(=O)COc2ccc(Sc3c(O)cc(-c4ccccc4)oc3=O)c(C(C)(C)C)c2)NC(=O)[C@H](CC(C)C)N(C)C(=O)[C@H](C(C)C)NC(=O)[C@H](CC(C)C)N(C)C(=O)[C@@H](CO)N(C)C1=O [Compound 2.9] (cyclo([Abu][dNMeS][NMeL]V[NMeL]K(X3)[dA][NMeL][NMeL][NMeV][NMeLeu(3R-OH)])) | 3.4 nM | 9.3 nM | – | – | – |
| CC[C@@H]1NC(=O)[C@H]([C@H](O)C(C)C)N(C)C(=O)[C@H](C(C)C)N(C)C(=O)[C@H](CC(C)C)N(C)C(=O)[C@H](CC(C)C)N(C)C(=O)[C@@H](C)NC(=O)[C@H](CCCCNC(=O)COc2ccc(C[C@H](NC(=O)O[C@H]3CCOC3)[C@H](O)CN(CC(C)C)S(=O)(=O)c3ccc(N)cc3)cc2)NC(=O)[C@H](CC(C)C)N(C)C(=O)[C@H](C(C)C)NC(=O)[C@H](CC(C)C)N(C)C(=O)[C@@H](CO)N(C)C1=O [Compound 2.10] (cyclo([NMeLeu(3R-OH)][Abu][dNMeS][NMeL]V[NMeL]K(X2)[dA][NMeL][NMeL][NMeV])) | 2.3 nM | 6 nM | confirmed active | – | – |
| Nc1cccc(CN2C(=O)N(Cc3cccc(N)c3)[C@H](Cc3ccccc3)[C@H](O)[C@@H](O)[C@H]2Cc2ccccc2)c1 [DMP-450] | – | – | – | much higher plasma concentrations | – |
| O=C(Nc1nc2ccccc2[nH]1)c1cccc(CN2C(=O)N(Cc3cccc(C(=O)Nc4nc5ccccc5[nH]4)c3)[C@H](Cc3ccccc3)[C@H](O)[C@@H](O)[C@H]2Cc2ccccc2)c1 [SD-146] | – | – | – | – | 5.1 nM |
